The record followed here is ChEMBL document CHEMBL3627608, “Crystal structures of human RIP2 kinase catalytic domain complexed with ATP-competitive inhibitors: Foundations for understanding inhibitor selectivity” (Bioorg Med Chem, 2015).

The target in assay [1] is T1, Ephrin type-A receptor 1 (Homo sapiens) (UniProt P21709).
T1 sequence (whole entry): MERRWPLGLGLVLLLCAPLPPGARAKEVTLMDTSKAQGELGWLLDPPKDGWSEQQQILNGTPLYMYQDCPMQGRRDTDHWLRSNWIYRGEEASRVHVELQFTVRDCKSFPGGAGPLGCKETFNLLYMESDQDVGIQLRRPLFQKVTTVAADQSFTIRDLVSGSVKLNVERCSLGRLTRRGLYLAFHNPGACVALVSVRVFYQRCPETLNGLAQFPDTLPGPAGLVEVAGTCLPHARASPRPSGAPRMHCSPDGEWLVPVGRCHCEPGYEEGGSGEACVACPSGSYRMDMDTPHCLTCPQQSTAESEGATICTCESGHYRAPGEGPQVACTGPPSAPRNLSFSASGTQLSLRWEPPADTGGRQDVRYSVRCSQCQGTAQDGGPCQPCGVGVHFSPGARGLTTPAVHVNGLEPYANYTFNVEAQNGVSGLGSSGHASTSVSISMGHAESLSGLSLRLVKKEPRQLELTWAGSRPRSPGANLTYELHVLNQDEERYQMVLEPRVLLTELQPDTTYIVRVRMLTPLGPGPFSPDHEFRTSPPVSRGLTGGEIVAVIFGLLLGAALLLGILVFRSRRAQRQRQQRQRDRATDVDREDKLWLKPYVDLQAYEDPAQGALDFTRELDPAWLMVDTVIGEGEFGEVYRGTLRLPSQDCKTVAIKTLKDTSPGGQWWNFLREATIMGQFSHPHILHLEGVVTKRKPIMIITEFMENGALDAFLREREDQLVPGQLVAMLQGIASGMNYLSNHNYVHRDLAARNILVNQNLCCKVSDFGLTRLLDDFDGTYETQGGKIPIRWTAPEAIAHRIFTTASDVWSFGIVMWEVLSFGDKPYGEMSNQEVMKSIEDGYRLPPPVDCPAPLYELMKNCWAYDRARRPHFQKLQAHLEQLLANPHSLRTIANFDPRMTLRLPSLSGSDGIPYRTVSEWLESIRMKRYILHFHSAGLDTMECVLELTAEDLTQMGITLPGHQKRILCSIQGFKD
In words: Inhibition of EPHA1 (unknown origin) at 10 uM after 120 mins P33 radiolabeled kinase activity assay.

Assay [2] deals with Vascular endothelial growth factor receptor 3 (Homo sapiens) (UniProt P35916). In words: Inhibition of FLT4 (unknown origin) at 10 uM after 120 mins P33 radiolabeled kinase activity assay.
For assay [3], the target named is Mitogen-activated protein kinase 14 (Homo sapiens) (UniProt Q16539). In words: Inhibition of P38alpha (unknown origin) at 10 uM after 120 mins P33 radiolabeled kinase activity assay.
Assay [4] addresses Serine/threonine-protein kinase PAK 3 (Homo sapiens) (UniProt O75914). The assay can be described thus: Inhibition of PAK3 (unknown origin) at 10 uM after 120 mins P33 radiolabeled kinase activity assay.
Assay [5] has as its target Protein kinase C gamma type (Homo sapiens) (UniProt P05129). In words: Inhibition of PKCgamma (unknown origin) at 10 uM after 120 mins P33 radiolabeled kinase activity assay.
The target in assay [6] is Mitogen-activated protein kinase 9 (Homo sapiens) (UniProt P45984). The assay can be described thus: Inhibition of JNK2 (unknown origin) at 10 uM after 120 mins P33 radiolabeled kinase activity assay.
The target in assay [7] is Rho-associated protein kinase 2 (Homo sapiens) (UniProt O75116). The assay can be described thus: Inhibition of ROCK2 (unknown origin) at 10 uM after 120 mins P33 radiolabeled kinase activity assay.
The target of assay [8] is T2, Serine/threonine-protein kinase Nek1 (Homo sapiens) (UniProt Q96PY6).
T2 sequence (whole entry): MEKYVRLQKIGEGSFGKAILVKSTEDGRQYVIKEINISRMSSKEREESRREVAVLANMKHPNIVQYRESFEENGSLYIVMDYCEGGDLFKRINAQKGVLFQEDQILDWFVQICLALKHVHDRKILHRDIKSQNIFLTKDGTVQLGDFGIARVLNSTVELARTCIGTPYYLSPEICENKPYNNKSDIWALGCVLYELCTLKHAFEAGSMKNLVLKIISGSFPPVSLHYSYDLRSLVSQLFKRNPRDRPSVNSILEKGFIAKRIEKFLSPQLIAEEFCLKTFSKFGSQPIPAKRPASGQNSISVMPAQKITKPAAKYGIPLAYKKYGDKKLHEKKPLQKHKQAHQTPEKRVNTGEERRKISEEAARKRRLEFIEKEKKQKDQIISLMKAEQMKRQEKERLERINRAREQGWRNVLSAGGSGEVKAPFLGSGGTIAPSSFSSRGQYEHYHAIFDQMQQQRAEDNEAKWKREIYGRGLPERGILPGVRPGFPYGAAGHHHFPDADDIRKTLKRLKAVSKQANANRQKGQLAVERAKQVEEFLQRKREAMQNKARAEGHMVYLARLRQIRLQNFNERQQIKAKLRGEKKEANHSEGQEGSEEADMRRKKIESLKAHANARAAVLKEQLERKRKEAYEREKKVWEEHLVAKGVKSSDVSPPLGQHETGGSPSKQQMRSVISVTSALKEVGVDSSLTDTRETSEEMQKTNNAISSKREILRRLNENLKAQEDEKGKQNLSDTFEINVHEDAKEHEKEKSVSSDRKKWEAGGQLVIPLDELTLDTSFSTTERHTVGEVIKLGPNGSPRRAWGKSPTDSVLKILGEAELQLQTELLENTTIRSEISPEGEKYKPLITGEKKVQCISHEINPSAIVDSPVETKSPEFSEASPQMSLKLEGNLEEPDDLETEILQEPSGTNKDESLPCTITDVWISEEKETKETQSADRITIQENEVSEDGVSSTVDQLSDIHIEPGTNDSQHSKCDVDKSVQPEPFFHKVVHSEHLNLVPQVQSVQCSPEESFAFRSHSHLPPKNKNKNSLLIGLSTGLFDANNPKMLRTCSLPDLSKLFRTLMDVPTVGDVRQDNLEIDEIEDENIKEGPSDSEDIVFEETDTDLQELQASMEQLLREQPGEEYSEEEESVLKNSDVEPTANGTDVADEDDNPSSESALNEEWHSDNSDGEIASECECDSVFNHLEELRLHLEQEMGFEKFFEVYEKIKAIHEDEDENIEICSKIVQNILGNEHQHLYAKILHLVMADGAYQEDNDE
In words: Inhibition of NEK1 (unknown origin) at 10 uM after 120 mins P33 radiolabeled kinase activity assay.

Assay [9] addresses Serine/threonine-protein kinase 32C (Homo sapiens) (UniProt Q86UX6). The assay can be described thus: Inhibition of STK32C (unknown origin) at 10 uM after 120 mins P33 radiolabeled kinase activity assay.

Sequence of Mitogen-activated protein kinase 9 (Homo sapiens) (P45984 whole entry, looked up): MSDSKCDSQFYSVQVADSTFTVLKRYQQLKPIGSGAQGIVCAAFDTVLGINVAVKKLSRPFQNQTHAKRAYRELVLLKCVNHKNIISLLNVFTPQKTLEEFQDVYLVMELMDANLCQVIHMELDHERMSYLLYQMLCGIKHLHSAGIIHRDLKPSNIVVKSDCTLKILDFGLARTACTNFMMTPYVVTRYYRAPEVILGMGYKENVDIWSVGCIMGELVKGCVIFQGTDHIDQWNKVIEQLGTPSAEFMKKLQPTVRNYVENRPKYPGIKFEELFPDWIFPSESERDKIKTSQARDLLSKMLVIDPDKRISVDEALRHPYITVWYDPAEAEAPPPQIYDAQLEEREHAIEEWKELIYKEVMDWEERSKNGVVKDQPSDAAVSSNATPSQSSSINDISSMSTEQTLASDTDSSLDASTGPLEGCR
Sequence of Serine/threonine-protein kinase PAK 3 (Homo sapiens) (O75914 whole entry, looked up): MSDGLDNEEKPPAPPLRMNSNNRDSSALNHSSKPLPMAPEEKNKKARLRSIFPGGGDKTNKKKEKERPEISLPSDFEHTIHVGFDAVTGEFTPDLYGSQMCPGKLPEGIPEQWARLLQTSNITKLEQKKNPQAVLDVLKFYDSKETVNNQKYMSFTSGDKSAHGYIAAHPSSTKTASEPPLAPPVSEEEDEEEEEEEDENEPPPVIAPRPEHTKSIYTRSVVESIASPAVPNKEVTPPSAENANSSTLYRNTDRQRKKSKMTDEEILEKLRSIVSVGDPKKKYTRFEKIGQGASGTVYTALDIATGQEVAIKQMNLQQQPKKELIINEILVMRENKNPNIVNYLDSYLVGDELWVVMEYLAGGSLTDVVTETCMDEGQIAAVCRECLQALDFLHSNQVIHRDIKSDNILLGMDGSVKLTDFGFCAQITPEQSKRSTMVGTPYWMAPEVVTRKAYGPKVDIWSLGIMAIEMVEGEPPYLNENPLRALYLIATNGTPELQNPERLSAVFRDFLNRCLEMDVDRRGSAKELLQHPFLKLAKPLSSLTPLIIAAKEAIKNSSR
Sequence of Rho-associated protein kinase 2 (Homo sapiens) (O75116 whole entry, looked up): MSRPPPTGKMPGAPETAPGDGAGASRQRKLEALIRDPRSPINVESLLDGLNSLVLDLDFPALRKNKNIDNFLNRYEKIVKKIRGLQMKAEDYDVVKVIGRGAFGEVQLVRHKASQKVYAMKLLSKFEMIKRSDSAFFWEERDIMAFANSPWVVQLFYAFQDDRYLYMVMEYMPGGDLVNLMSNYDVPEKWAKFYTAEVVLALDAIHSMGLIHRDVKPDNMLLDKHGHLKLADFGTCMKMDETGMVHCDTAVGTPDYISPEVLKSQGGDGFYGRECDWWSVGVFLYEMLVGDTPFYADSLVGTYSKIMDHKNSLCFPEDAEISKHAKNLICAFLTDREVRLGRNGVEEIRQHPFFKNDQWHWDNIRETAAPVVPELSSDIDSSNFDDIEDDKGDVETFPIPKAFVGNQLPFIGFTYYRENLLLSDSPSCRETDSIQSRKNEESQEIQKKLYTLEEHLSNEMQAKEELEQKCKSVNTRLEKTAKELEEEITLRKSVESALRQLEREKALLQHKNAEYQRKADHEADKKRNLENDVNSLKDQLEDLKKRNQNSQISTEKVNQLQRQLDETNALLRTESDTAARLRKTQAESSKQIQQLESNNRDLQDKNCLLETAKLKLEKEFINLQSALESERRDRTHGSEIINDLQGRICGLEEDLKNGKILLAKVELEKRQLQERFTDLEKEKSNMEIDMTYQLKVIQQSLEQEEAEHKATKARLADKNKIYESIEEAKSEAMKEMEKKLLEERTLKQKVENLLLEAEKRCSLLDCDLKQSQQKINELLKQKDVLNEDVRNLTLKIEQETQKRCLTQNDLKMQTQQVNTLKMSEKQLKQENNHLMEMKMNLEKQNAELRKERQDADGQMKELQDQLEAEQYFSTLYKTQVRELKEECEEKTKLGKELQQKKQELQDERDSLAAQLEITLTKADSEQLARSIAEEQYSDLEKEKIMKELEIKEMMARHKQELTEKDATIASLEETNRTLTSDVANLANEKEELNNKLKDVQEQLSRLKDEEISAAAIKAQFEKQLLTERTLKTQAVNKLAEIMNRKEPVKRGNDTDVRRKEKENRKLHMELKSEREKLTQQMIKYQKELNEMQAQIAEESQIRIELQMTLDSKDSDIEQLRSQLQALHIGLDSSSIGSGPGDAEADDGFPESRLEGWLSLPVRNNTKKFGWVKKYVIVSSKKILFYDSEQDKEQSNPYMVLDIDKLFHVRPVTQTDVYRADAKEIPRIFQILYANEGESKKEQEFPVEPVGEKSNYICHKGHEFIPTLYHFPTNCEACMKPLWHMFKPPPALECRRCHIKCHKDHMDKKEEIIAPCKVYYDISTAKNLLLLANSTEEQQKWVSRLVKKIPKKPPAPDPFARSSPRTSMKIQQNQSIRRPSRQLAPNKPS
Sequence of Vascular endothelial growth factor receptor 3 (Homo sapiens) (P35916 whole entry): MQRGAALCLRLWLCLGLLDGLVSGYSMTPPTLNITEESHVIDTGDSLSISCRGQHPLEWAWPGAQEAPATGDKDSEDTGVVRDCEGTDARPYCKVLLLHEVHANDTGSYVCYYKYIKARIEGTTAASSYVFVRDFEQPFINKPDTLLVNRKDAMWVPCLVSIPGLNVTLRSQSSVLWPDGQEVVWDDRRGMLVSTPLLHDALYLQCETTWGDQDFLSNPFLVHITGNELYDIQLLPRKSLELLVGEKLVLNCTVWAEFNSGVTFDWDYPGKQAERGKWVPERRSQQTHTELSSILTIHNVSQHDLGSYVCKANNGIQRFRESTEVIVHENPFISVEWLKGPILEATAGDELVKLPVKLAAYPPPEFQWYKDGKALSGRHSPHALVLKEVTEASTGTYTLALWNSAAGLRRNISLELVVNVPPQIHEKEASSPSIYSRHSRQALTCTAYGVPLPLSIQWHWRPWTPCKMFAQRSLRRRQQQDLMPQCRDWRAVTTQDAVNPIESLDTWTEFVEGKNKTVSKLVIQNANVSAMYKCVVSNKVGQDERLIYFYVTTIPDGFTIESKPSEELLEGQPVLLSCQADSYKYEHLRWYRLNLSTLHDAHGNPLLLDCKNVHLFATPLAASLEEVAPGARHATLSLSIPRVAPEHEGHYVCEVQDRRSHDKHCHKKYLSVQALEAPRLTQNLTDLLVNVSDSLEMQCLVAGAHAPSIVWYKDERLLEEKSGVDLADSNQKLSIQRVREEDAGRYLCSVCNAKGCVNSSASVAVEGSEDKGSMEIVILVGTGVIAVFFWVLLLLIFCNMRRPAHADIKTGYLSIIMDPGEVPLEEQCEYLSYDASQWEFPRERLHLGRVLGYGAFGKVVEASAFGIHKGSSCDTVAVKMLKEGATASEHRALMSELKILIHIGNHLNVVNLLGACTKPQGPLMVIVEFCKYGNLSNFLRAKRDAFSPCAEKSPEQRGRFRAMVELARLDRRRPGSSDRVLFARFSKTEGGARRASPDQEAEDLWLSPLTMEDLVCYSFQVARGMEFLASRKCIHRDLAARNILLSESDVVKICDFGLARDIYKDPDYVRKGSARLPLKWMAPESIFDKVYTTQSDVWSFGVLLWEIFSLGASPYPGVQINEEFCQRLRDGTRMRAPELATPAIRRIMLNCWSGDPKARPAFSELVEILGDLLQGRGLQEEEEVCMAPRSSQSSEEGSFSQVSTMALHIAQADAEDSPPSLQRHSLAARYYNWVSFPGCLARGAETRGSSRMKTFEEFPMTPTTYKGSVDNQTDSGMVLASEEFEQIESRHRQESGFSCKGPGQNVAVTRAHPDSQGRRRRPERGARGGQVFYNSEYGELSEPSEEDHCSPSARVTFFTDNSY
Sequence of Mitogen-activated protein kinase 14 (Homo sapiens) (Q16539 whole entry): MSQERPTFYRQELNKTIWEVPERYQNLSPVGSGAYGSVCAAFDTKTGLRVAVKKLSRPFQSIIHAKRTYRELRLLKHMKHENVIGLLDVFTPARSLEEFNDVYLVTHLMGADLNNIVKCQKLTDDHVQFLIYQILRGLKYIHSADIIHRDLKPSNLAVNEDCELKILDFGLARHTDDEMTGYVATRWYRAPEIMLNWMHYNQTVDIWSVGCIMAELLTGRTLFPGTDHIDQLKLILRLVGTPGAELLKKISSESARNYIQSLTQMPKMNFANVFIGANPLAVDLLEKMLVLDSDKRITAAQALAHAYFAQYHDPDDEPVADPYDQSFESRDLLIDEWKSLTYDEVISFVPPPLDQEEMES

One may read the inhibition as the percentage by which the read-out fell short of the control. Higher therefore signals strong suppression. For the molecule `CS(=O)(=O)c1cccc(Nc2nccc(-c3sc(N4CCOCC4)nc3-c3cccc(NS(=O)(=O)c4c(F)cccc4F)c3)n2)c1`, the inhibition in assay [1] came out at 91.4%; in [2] it was 99.5%; in assay [3], 18.8%; in assay [4], 53.5%; in assay [5], 10.9%; in assay [6] it was 13.5%. For the same molecule, the inhibition in assay [7] is 14.8%; in assay [8], 15.4%; in [9], 8.37%.
As for `CC(C)(C)c1cc(NC(=O)Nc2ccc(Oc3ccncc3)cc2)no1`, the inhibition amounted to 86.2% in assay [1]; 98.9% in assay [2]; 98.9% in assay [3]; 20.6% in assay [4]; 2.25% in [5]; 79.8% in assay [6]. For the same molecule, the inhibition in assay [7] was found to be 59.1%; in [8] it was 12.5%; in assay [9], 12.9%.
Turning to `COCCNC(=O)c1ccc2c(c1)nc(-c1cnc(-c3ccc(Cl)cc3)[nH]1)n2CCOC`, the inhibition in [1] worked out at 16.6%; in [2], 13.7%; in assay [3], 62.3%; in assay [4], 18.5%; in [5] it was 4.86%; in assay [6], 9.13%. The inhibition came out at 6.87% in assay [7], 2.5% in assay [8] and 13% in assay [9].
